Measurements as given in ChEMBL document CHEMBL1201862, “PubChem BioAssay data set” (2004).
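Cultured in 96-well plates, cells were exposed to test compound for 48 hours across five concentrations. The concentration for 50% growth inhibition is given as GI50.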 Active and inactive are the calls of the source. No stated cut-off is given here; in the data, active = GI50 up to about 1.1 µM and inactive = higher.

What was measured:
Test in all cases: DTP human tumour cell line panel, 48 h
[1] = tested on: HT-29
[2] = tested on: A549
[3] = tested on: COLO 205
[4] = tested on: Malme-3M
[5] = tested on: RXF 393
[6] = tested on: OVCAR-8
[7] = tested on: OVCAR-5
[8] = tested on: IGROV-1
[9] = tested on: SF-539
[10] = tested on: UACC-62
[11] = tested on: SK-MEL-5
[12] = tested on: HCC 2998
[13] = tested on: NCI-H522
[14] = tested on: SF-295
[15] = tested on: NCI-H23

Structure (SMILES) | GI50 [1] | GI50 [2] | GI50 [3] | GI50 [4] | GI50 [5] | GI50 [6] | GI50 [7] | GI50 [8] | GI50 [9] | GI50 [10] | GI50 [11] | GI50 [12] | GI50 [13] | GI50 [14] | GI50 [15]
[O-][S+]1c2ccccc2N=C(c2ccc(Cl)cc2)CC1c1cccs1 (stereo not given) | 17.3 µM (inactive) | 32.4 µM (inactive) | 20 µM (inactive) | 57.8 µM (inactive) | 14.4 µM (inactive) | 17.8 µM (inactive) | 16.7 µM (inactive) | 14.8 µM (inactive) | 16.7 µM (inactive) | 15.7 µM (inactive) | 19 µM (inactive) | 16.3 µM (inactive) | 27.4 µM (inactive) | 16.6 µM (inactive) | 23.8 µM (inactive)
CC(C)OP(=O)(OC(C)C)c1nc(-c2ccccc2)n(-c2ccc([N+](=O)[O-])cc2)n1 | > 100 µM (inactive) | > 100 µM (inactive) | > 100 µM (inactive) | > 100 µM (inactive) | 0.0111 µM (active) | > 100 µM (inactive) | > 100 µM (inactive) | > 100 µM (inactive) | > 100 µM (inactive) | > 100 µM (inactive) | > 100 µM (inactive) | > 100 µM (inactive) | 98.9 µM (inactive) | > 100 µM (inactive) | > 100 µM (inactive)
Brc1nc2c3ccccc3ncn2c1Br | 29.3 µM (inactive) | 38.8 µM (inactive) | 16.3 µM (inactive) | 13.3 µM (inactive) | 35.6 µM (inactive) | 42.7 µM (inactive) | 64.9 µM (inactive) | 35.9 µM (inactive) | 49.9 µM (inactive) | 16.4 µM (inactive) | 18.3 µM (inactive) | 46.9 µM (inactive) | 18.7 µM (inactive) | 34.4 µM (inactive) | 20.7 µM (inactive)
Cc1cccc(C)c1NC(=O)CCC(=O)NNC(=O)c1cc(O)c2ccccc2c1 | 58.3 µM (inactive) | 64.7 µM (inactive) | 18.7 µM (inactive) | 72.1 µM (inactive) | 5.35 µM (inactive) | 20.7 µM (inactive) | 32.7 µM (inactive) | 30.4 µM (inactive) | 27.9 µM (inactive) | 25.6 µM (inactive) | 32.3 µM (inactive) | 51.9 µM (inactive) | 26.3 µM (inactive) | 24 µM (inactive) | 26.3 µM (inactive)
CC1=C(C(=O)Nc2ccc(Cl)c(Cl)c2)C(c2ccc([N+](=O)[O-])cc2)C(C(=O)Nc2ccc(Cl)c(Cl)c2)=C(C)N1 | 2.42 µM (inactive) | 2.82 µM (inactive) | 1.71 µM (inactive) | 2.57 µM (inactive) | 1.78 µM (inactive) | 2.13 µM (inactive) | 3.23 µM (inactive) | 3.2 µM (inactive) | 3.13 µM (inactive) | 1.7 µM (inactive) | 1.67 µM (inactive) | 2 µM (inactive) | 2.55 µM (inactive) | 2.7 µM (inactive) | 2.21 µM (inactive)
Cc1cccc(C)c1NC(=O)CCc1nnc2s/c(=C\c3ccc(N(C)C)cc3)c(=O)n12 | > 100 µM (inactive) | > 100 µM (inactive) | > 100 µM (inactive) | > 100 µM (inactive) | 69.2 µM (inactive) | > 100 µM (inactive) | > 100 µM (inactive) | > 100 µM (inactive) | > 100 µM (inactive) | > 100 µM (inactive) | > 100 µM (inactive) | > 100 µM (inactive) | > 100 µM (inactive) | 56.1 µM (inactive) | > 100 µM (inactive)
FC(F)(F)c1ccc2c(c1)N(CCCNCCN1CCOCC1)c1ccccc1S2 | 3.24 µM (inactive) | 14.4 µM (inactive) | 2.37 µM (inactive) | 2.44 µM (inactive) | 2.62 µM (inactive) | 16.6 µM (inactive) | 11.3 µM (inactive) | 15.8 µM (inactive) | 4.7 µM (inactive) | 13.2 µM (inactive) | 3.8 µM (inactive) | 2.23 µM (inactive) | 14.9 µM (inactive) | 13.3 µM (inactive) | 12.3 µM (inactive)
